# “Also recorded” adds a separate entry of the source. Where two headings read alike, the source gives them in different places.
# Legend:
# [1] = test system: morphinic respiratory depression; experiment: Respiratory analeptic properties, vigil rabbit, morphinic respiratory depression; format: in vivo; conditions: for respiratory analeptic activity (in words): i.v., vigil rabbit, comparison with reference compound
# Method: The compounds of formula (I) administered intravenously to a vigil rabbit, are capable of opposing morphinic respiratory depression (subcutaneous injection of 50 mg/kg of morphine hydrochloride).
# .- Respiratory analeptic properties were studied in a vigil rabbit subjected to a morphinic respiratory depression. The products studied were administered intravenously.
# gastric secretion [2] = experiment: Gastric antisecretory activity, vigil rat, pyloric binding for 4 hours; format: in vivo; conditions: for ED50: Rattus norvegicus, 4 h, i.d.; for gastric antisecretory properties (in words): comparison with compound No. 7110 / patent No 3 862 177
# Method: .- The gastric antisecretory activity was studied in a vigil rat fitted with a pyloric binding for 4 hours, according to Shay and al.
# It was evaluated by diminutions in the volume, the concentration and the flow of free acid in the gastric juice. The compounds tested were administered intraduodenally.
# [3] = test system: bronchoconstriction caused by acetylcholine; experiment: Anti-bronchoconstriction, anaesthetized guinea-pig, acetylcholine i.v. (Konzett and Rossler); format: in vivo; conditions: for ED50: Cavia porcellus, iv, compound i.v., read-out: DE 50 (the source's name); for activity by route of administration: i.v. and i.d.; for anti-bronchoconstriction properties (in words): guinea-pig, comparison with compound of patent No 3 862 177
# Method: (§1) Injected intravenously or intraduodenally, the compounds of formula (I) are capable of opposing bronchoconstriction caused in a guinea-pig anaesthetized with ethylurethane at 20 % (1.5 g/kg intraperitoneally) by intravenous injection of histamine ([…]/i.v.), of acetylcholine (40 μg/kg/i.v.), of bradykinine (5 μg/kg/i.v.) or of serotinine (20 μg/kg/i.v.).
# (§2) .- The anti-bronchoconstriction properties were studied in an anaesthetized guinea-pig and in a vigil guinea-pig.
# (§3) The antagonism exercised by the products studied to a bronchoconstriction due to an intravenous injection of acetylcholine, histamine or bradykinine was evaluated according to Konzett and Rossler's method.
# (§4) The products studied were administered intraduodenally or intravenously.
# Shay's ulcers = experiment: Shay's ulcers, rat, binding the pylorus; format: in vivo; conditions: for anti-ulcerous properties (in words): comparison with compound No. 7110 / patent No 3 862 177
# Method: (b) Shay's ulcers: the compounds of formula (I) administered intraduodenally reduce the area of ulcerations induce in a rat by binding the pylorus. Thus, compound code No 73 0466 administered in a dose of 20 mg/kg/i.d. reduces by 80 % Shay's ulcer.
# (§5) .- The anti-ulcerous activity was evaluated by the percentage of protection (quantal response) against ulcers caused in a rat by binding the pylorus or by putting under constraint for 7 hours.
# (§6) The products were administered intraduodenally (Shay's ulcer) or orally (constraint ulcer).
# [4] = test system: bronchoconstriction caused by bradykinine; experiment: Anti-bronchoconstriction, anaesthetized guinea-pig, bradykinine i.v. (Konzett and Rossler); format: in vivo
# Method: as §1, §2, §3, §4
# constraint ulcers = experiment: Constraint ulcers, rat, 7 hours; format: in vivo
# Method: (a) Constraint ulcers: the compounds of formula (I), administered orally, reduce the area of ulcerations caused in a rat placed under constraint. Thus, compound No 73 0466 administered at a dose of 5 mg/kg/po, reduces by 78% the area of the ulcerations caused by being put under constraint for 7 hours.
# as §5, §6
# Acute toxicity, mouse = conditions: in vivo
# [5] = test system: contracting effect of acetylcholine on the duodenum; experiment: Spasmolytic, duodenum of rat, acetylcholine
# Method: (§7) Compound code number 73 0457, introduced into the conserving medium, is capable of opposing the contractural action of histamine and bradykinine on the ileum of a guinea-pig, DI 50 being respectively 0.16 μg/ml and 3.1 μg/ml, prevents spasms in the uterus of a female rat induced by serotonine (DI 50= 0.8 μg/ml) and opposes the contracting effect of acetylcholine on the duodenum of a rat (DI 50= 0.8μg/ml).
# [6] = test system: bronchoconstriction caused by histamine; experiment: Anti-bronchoconstriction, anaesthetized guinea-pig, histamine i.v. (Konzett and Rossler); format: in vivo; conditions: for Percentage of inhibition of the bronchoconstriction: histamine
# Method: as §1, §2, §3, §4
# [7] = test system: contractural action of bradykinine on the ileum; experiment: Spasmolytic, ileum of guinea-pig, bradykinine
# Method: as §7
# [8] = test system: spasms in the uterus induced by serotonine; experiment: Spasmolytic, uterus of female rat, serotonine
# Method: as §7
# [9] = test system: contractural action of histamine on the ileum; experiment: Spasmolytic, ileum of guinea-pig, histamine
# Method: as §7
# [10] = test system: bronchoconstriction caused by serotonine; experiment: Anti-bronchoconstriction, anaesthetized guinea-pig, serotonine i.v.; format: in vivo; conditions: Cavia porcellus, iv, compound i.v., read-out: DE 50 (the source's name)
# Method: as §1
# [11] = test system: bronchospasm caused by histamine aerosol; experiment: Protection of vigil guinea-pig against histamine aerosol bronchospasm; format: in vivo
# Method: These properties are also observed by administering the compounds of formula (I) orally, to a vigil guinea-pig subjected to a histamine aerosol (exposition for 10 minutes to an aerosol obtained from an aqueous solution containing 0.4 % histamine and 10 % glycerine), the criterium of activity being the total protection from the fall caused by the bronchospasm.
# [12] = test system: bronchospasm caused by acetylcholine aerosol; experiment: Protection of vigil guinea-pig against acetylcholine aerosol bronchospasm; format: in vivo
# gastric secretion [13] = experiment: Gastric antisecretory properties, anaesthetized rat with Shay binding; format: in vivo; conditions: 2 mg/kg i.d.
# Description: The compounds of formula (I), administered intraduodenally to an anaesthetized rat provided with a Shay binding are capable of reducing the gastric secretion.
# [14] = read-out: Gastric antisecretory action, Volume, D.E. 50
# [15] = acetylcholine, anaesthetized guinea-pig
# [16] = po, 2000 mg/kg, p.o., 2 000 mg/kg, read-out: Percentage mortality, orally
# [17] = acetylcholine i.v., 25 mg/kg i.d.
compound,measurement,setting,value
"O=C(CCn1c(CN2CCN(CC=Cc3ccccc3)CC2)nc2ccccc21)c1ccccc1 [7 110, reference compound]",Duration of effect,[1]; 4 mg/kg i.v.,0 min
same,"Percentage increase, respiratory amplitude",[1]; 4 mg/kg i.v.,0%
same,"Percentage increase, respiratory frequency",[1]; 4 mg/kg i.v.,0%
same,ED50,gastric secretion [2]; [14],2.5 mg/kg
same,ED50,[3]; acetylcholine i.v.,2.4 mg/kg
same,Anti-bronchoconstriction action,"[3]; acetylcholine i.v., 30 mg/kg i.d.",0
same,activity by route of administration,[3]; [15],acts solely intravenously
same,ED50,"Shay's ulcers; Rattus norvegicus, i.d., read-out: Anti-ulcerous action, Shay's ulcer, D.E. 50",28.5 mg/kg
same,ED50,"[4]; Cavia porcellus, bradykinine i.v., compound i.d., read-out: D.E. 50 (the source's name)",30 mg/kg
same,ED50,"constraint ulcers; Rattus norvegicus, po, 7 h, p.o., read-out: Anti-ulcerous action, Constraint ulcer for 7 hours, D.E. 50",4.2 mg/kg
same,mortality,"Acute toxicity, mouse; po, 4800 mg/kg, p.o., 4 800 mg/kg, read-out: Acute toxicity (p.o.), percentage mortality",30%
"O=C(CCn1c(CN2CCN(CC=Cc3ccccc3)CC2)nc2ccccc21)c1ccco1 [73 0457, dimaleate of 1-[2'-(α-furoyl)eth-1' yl]-2-(4""-cinnamylpiperazin 1"" ylmethyl) benzimidazole]",Duration of effect,[1]; 10 mg/kg i.v.,25 min
same,respiratory analeptic activity (in words),[1],considerable respiratory analeptic activity; also recorded: considerable anti-bronchoconstriction and respiratory analeptic properties
same,DI 50,[5],0.8 µg/mL
same,Percentage of inhibition of the bronchoconstriction,[6]; 12.5 mg/kg i.d.,100%
same,DI 50,[7],3.1 µg/mL
same,ED50,"gastric secretion [2]; read-out: Gastric antisecretory action, Free acid concentration, D.E. 50",55 mg/kg
same,ED50,"gastric secretion [2]; read-out: Gastric antisecretory action, Free acid flow, D.E. 50",15 mg/kg
same,ED50,gastric secretion [2]; [14],11.5 mg/kg
same,gastric antisecretory properties (in words),gastric secretion [2],lower gastric antisecretory and anti-ulcerous activities
same,ED50,[3]; acetylcholine i.v.,< 4 mg/kg
same,"Anti-bronchoconstriction action, percentage","[3]; acetylcholine i.v., 0.0625 mg/kg i.v.",63%
same,Percentage of inhibition of the bronchoconstriction,"[3]; acetylcholine, 12.5 mg/kg i.d.",70%
same,Duration,"[3]; acetylcholine, 12.5 mg/kg i.d., Table I",> 90 min
same,Duration,"[3]; acetylcholine, 12.5 mg/kg i.d., Table IV",> 90 min
same,times lower active dose than that of compound No. 7110,[3]; [15],38 times
same,activity by route of administration,[3]; [15],"active in this same test, not only when administered intravenously but intraduodenally"
same,anti-bronchoconstriction properties (in words),[3],considerable anti-bronchoconstriction and respiratory analeptic properties
same,"Anti-ulcerous action, Shay's ulcer (percentage of protection, quantal response)",Shay's ulcers; 50 mg/kg i.d.,0
same,anti-ulcerous properties (in words),Shay's ulcers,lower gastric antisecretory and anti-ulcerous activities
same,Percentage of inhibition of the bronchoconstriction,"[4]; bradykinine, 8 mg/kg i.v.",75%
same,DI 50,[8],0.8 µg/mL
same,DI 50,[9],0.16 µg/mL
same,ED50,[10],< 4 mg/kg
same,percentage of animals totally protected,[11]; 1.56 mg/kg p.o.,50%
same,Duration,[11]; 100 mg/kg p.o.,> 6 h
same,Percentage of inhibition of the bronchoconstriction,[11]; 100 mg/kg p.o.,100%
same,mortality,"Acute toxicity, mouse; iv, 48 mg/kg, i.v., at 48 ± 2.5 mg/kg, read-out: Percentage mortality, intravenously",~50%
same,LD50,"Acute toxicity, mouse; iv, read-out: Dose administered (mouse), intravenously, DE 50",48 ± 2.5 mg/kg
same,mortality,"Acute toxicity, mouse; [16]",0%
same,percentage of animals totally protected,[12]; 12.5 mg/kg p.o.,50%
"O=C(CCn1c(CN2CCN(CC=Cc3ccccc3)CC2)nc2ccccc21)c1cccs1 [73 0466, dimaleate of 1-[2'(α -thienoyl)eth-1'yl]-2-(4""-cinnamylpiperazin 1""ylmethyl)benzimidazole]",respiratory analeptic activity (in words),[1],considerable anti-bronchoconstriction and respiratory analeptic properties
same,ED50,"[6]; Cavia porcellus, histamine i.v., compound i.d., read-out: D.E. 50 (the source's name)",25 mg/kg
same,Percentage of inhibition of the bronchoconstriction,[6]; 25 mg/kg i.d.,50%
same,reduction of the volume of the gastric secretion,gastric secretion [13],28%
same,"Gastric antisecretory action, Free acid concentration",gastric secretion [2]; 2 mg/kg i.d.,inactive
same,gastric antisecretory properties (in words),gastric secretion [2],lower gastric antisecretory and anti-ulcerous activities
same,"Anti-bronchoconstriction action, percentage",[3]; [17],95%
same,Duration of anti-bronchoconstriction action,[3]; [17],> 30 min
same,Duration,"[3]; acetylcholine, 100 mg/kg i.d.",60 min
same,Percentage of inhibition of the bronchoconstriction,"[3]; acetylcholine, 100 mg/kg i.d.",100%
same,activity by route of administration,[3]; [15],"active in this same test, not only when administered intravenously but intraduodenally"
same,anti-bronchoconstriction properties (in words),[3],considerable anti-bronchoconstriction and respiratory analeptic properties
same,reduction of Shay's ulcer (area of ulcerations),Shay's ulcers; 20 mg/kg i.d.,80%
same,anti-ulcerous properties (in words),Shay's ulcers,lower gastric antisecretory and anti-ulcerous activities
same,reduction of the area of the ulcerations,"constraint ulcers; 5 mg/kg p.o., constraint for 7 hours",78%
same,percentage of animals totally protected,[11]; 50 mg/kg p.o.,67%
same,mortality,"Acute toxicity, mouse; [16]",30%
same,percentage of animals totally protected,[12]; 50 mg/kg p.o.,100%
"prethcamide [MICORENE, reference compound]",Duration of effect,[1]; 10 mg/kg i.v.,7 min

# — patent publication US4029789A, “1-[2'-(α-Furoyl or α-thienoyl)eth-1'-yl]-2-(4"-cinnamyl piperazin-1"-yl methyl)benzimidazoles and method of using same” (Delalande S.A., priority 1974, dated 1977)
